The values that follow come from patent US10696693B2, “Fused imidazole derivatives as TGF-beta inhibitors” (Rigel Pharmaceuticals, Inc., priority 2014, dated 2020).

Like-named read-outs stand apart in the source and are kept apart here.

In one assay the test system is GDF8. Put plainly: AlphaScreen SureFire p-SMAD3 (Ser423/425) assay, GDF8-stimulated cells. The assay is classed as cell-based. Particulars: Mus musculus. Summed up: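 Lysate (5 μL) went into 384-well shallow plates with 5 μL of Reaction Buffer, Activation Buffer and AlphaScreen Acceptor bead mix. Plates were sealed, kept dark and shaken for 2 hours at room temperature. Donor beads in dilution buffer (2 μL) were added for another 1½ hours, and p-SMAD3 signal was read on a Synergy-4 or Enspire reader.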
(Bead proximity is the source of the signal in Alpha formats.)

For the next assay, the system named is TGF-β. Put plainly: AlphaScreen SureFire p-SMAD3 (Ser423/425) assay, TGF-β-stimulated cells. Format: cell-based. Particulars: Mus musculus. Put shortly: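 The p-SMAD-3 (Ser423/425) SureFire assay measured phosphorylation of endogenous SMAD-3 in cell lysates. Cells were plated overnight in collagen-coated plates, exposed to three-fold serially diluted compounds for about 10 minutes, then stimulated with TGFβ. Lysates (5 μL) received acceptor bead mix for 2 hours, then donor beads for 1½ hours before AlphaScreen reading.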

The mark [1] stands for this setting: MPC-11, p-SMAD3 (Ser423/425) AlphaScreen in cell lysate, MPC11, GDF8 stimulation, read-out: GDF8: inhibition of GDF8 signaling, GDF pSMAD (MPC11).
Where [2] appears, read: p-SMAD3 (Ser423/425) AlphaScreen in cell lysate, MPC-11, TGF-β stimulation, read-out: TGF-β: inhibition of TGF-β signaling, TGF-β pSMAD (MPC-11).
The mark [3] stands for this setting: MPC-11, read-out: GDF8: inhibition of GDF8 signaling, GDF pSMAD (MPC11), p-SMAD3 (Ser423/425) AlphaScreen in cell lysate, GDF8 stimulation.
The mark [4] stands for this setting: MPC-11, read-out: TGF-β: inhibition of TGF-β signaling, TGF-β pSMAD (MPC-11), p-SMAD3 (Ser423/425) AlphaScreen in cell lysate, TGF-β stimulation.

As for `Fc1cc(F)c(-c2nc3occn3c2-c2ccc3cn[nH]c3c2)cc1F` [Compound 147, 6-(2,4,5-trifluorophenyl)-5-(1H-indazol-6-yl)imidazo[2,1-b]oxazole], the IC50 was under 50 nM in the assay on GDF8 (setting [1]) and 50 to 100 nM in the assay on TGF-β (setting [2]).
Taken in the same sequence, the figures for `Fc1cc(F)c(-c2nc3occn3c2-c2ccc3nccn3c2)cc1F` [Compound 148, 6-(2,4,5-trifluorophenyl)-5-(imidazo[1,2-a]pyridin-6-yl)imidazo[2,1-b]oxazole] were under 50 nM and 50 to 100 nM.
Taken in the same sequence, the figures for `Fc1cc(F)c(-c2nc3occn3c2-c2ccc3nccnc3c2)cc1F` [Compound 149, 5-(quinoxalin-6-yl)-6-(2,4,5-trifluorophenyl)imidazo[2,1-b]oxazole] were under 50 nM and 50 to 100 nM.
Taken in the same sequence, the figures for `Fc1cc(F)c(-c2nc3occn3c2-c2ccc3ncccc3c2)cc1F` [Compound 150, 5-(quinolin-6-yl)-6-(2,4,5-trifluorophenyl)imidazo[2,1-b]oxazole] were under 50 nM and 50 to 100 nM.
For the compound `Fc1cc(F)c(-c2nc3occn3c2-c2ccc3ncsc3c2)cc1F` [Compound 151, 5-(benzo[d]thiazol-6-yl)-6-(2,4,5-trifluorophenyl)imidazo[2,1-b]oxazole], the IC50 in the assay with GDF8 (setting [1]) and in the assay with TGF-β (setting [2]) was under 50 nM each time.
Turning to `Fc1cc(F)c(-c2nc3occn3c2-c2ccc3[nH]ncc3c2)cc1F` [Compound 152, 6-(2,4,5-trifluorophenyl)-5-(1H-indazol-5-yl)imidazo[2,1-b]oxazole], the results for the IC50 in the assay with GDF8 (setting [1]) and with TGF-β (setting [2]) were under 50 nM and 50 to 100 nM, respectively.
Taken in the same sequence, the figures for `Cc1ccc(-c2nc3occn3c2Br)c(F)c1` [Compound 153, 5-bromo-6-(2-fluoro-4-methylphenyl)imidazo[2,1-b]oxazole] were over 1000 nM and over 1000 nM.
For the compound `Fc1ccc(-c2nc3occn3c2-c2ccc3[nH]ncc3c2)c(F)c1` [Compound 154, 6-(2,4-difluorophenyl)-5-(1H-indazol-5-yl)imidazo[2,1-b]oxazole], the values for the IC50 with GDF8 (setting [1]) and with TGF-β (setting [2]) were under 50 nM and 100 to 1000 nM, respectively.
In the same order, the values of `Fc1ccc(-c2nc3occn3c2-c2ccc3cn[nH]c3c2)c(F)c1` [Compound 155, 6-(2,4-difluorophenyl)-5-(1H-indazol-6-yl)imidazo[2,1-b]oxazole] are 50 to 100 nM and 100 to 1000 nM.
Taken in the same sequence, the figures for `Fc1ccc(-c2nc3occn3c2-c2ccc3ncsc3c2)c(F)c1` [Compound 156, 5-(benzo[d]thiazol-6-yl)-6-(2,4-difluorophenyl)imidazo[2,1-b]oxazole] were under 50 nM and 50 to 100 nM.
As to `Fc1ccc(-c2nc3occn3c2-c2ccc3nccnc3c2)c(F)c1` [Compound 157, 6-(2,4-difluorophenyl)-5-(quinoxalin-6-yl)imidazo[2,1-b]oxazole], the IC50 in the assay with GDF8 (setting [1]) and with TGF-β (setting [2]) was 100 to 1000 nM in each case.
As for `Fc1ccc(-c2nc3occn3c2-c2ccc3ncccc3c2)c(F)c1` [Compound 158, 5-(quinolin-6-yl)-6-(2,4-difluorophenyl)imidazo[2,1-b]oxazole], the IC50 in the assay with GDF8 (setting [1]) was under 50 nM; in the assay with TGF-β (setting [2]), 50 to 100 nM.
In the same order, the values of `Fc1ccc(-c2nc3occn3c2-c2ccc3nccn3c2)c(F)c1` [Compound 159, 6-(2,4-difluorophenyl)-5-(imidazo[1,2-a]pyridin-6-yl)imidazo[2,1-b]oxazole] are under 50 nM and 50 to 100 nM.
As for `Fc1ccc(-c2nc3occn3c2-c2ccc3[nH]ncc3c2)c(F)c1F` [Compound 160, 6-(2,3,4-trifluorophenyl)-5-(1H-indazol-5-yl)imidazo[2,1-b]oxazole], the IC50 lay in the range of 50 to 100 nM in the assay on GDF8 (setting [1]) and 100 to 1000 nM in the assay with TGF-β (setting [2]).
In the same order, the values of `Fc1ccc(-c2nc3occn3c2-c2ccc3ncsc3c2)c(F)c1F` [Compound 161, 5-(benzo[d]thiazol-6-yl)-6-(2,3,4-trifluorophenyl)imidazo[2,1-b]oxazole] are 50 to 100 nM and 100 to 1000 nM.
Taken in the same sequence, the figures for `Fc1ccc(-c2nc3occn3c2-c2ccc3ncccc3c2)c(F)c1F` [Compound 162, 5-(quinolin-6-yl)-6-(2,3,4-trifluorophenyl)imidazo[2,1-b]oxazole] were 50 to 100 nM and 100 to 1000 nM.
For the compound `Fc1ccc(-c2nc3occn3c2-c2ccc3nccn3c2)c(F)c1F` [Compound 163, 5-(imidazo[1,2-a]pyridin-6-yl)-6-(2,3,4-trifluorophenyl)imidazo[2,1-b]oxazole], the IC50 lay within 50 to 100 nM in the assay with GDF8 (setting [1]) and 100 to 1000 nM in the assay on TGF-β (setting [2]).
Taken in the same sequence, the figures for `Fc1ccc(-c2nc3occn3c2-c2ccc3nccnc3c2)c(F)c1F` [Compound 164, 5-(quinoxalin-6-yl)-6-(2,3,4-trifluorophenyl)imidazo[2,1-b]oxazole] were 100 to 1000 nM and 100 to 1000 nM.
Taken in the same sequence, the figures for `Fc1cc(F)c(F)c(-c2nc3n(c2-c2ccc4ncccc4c2)CCCN3)c1` [Compound 165, 6-(2-(2,3,5-trifluorophenyl)-5,6,7,8-tetrahydroimidazo[1,2-a]pyrimidin-3-yl)quinoline] were over 1000 nM and 100 to 1000 nM.
In the same order, the values of `Fc1cc(F)c(F)c(-c2nc3n(c2-c2ccc4ncnn4c2)CCCN3)c1` [Compound 166, 6-(2-(2,3,5-trifluorophenyl)-5,6,7,8-tetrahydroimidazo[1,2-a]pyrimidin-3-yl)-[1,2,4]triazolo[1,5-a]pyridine] are 50 to 100 nM and 50 to 100 nM.
Regarding `COCCOc1cnc2ccc(-c3c(-c4cc(F)cc(F)c4F)nc4n3CCCN4)cc2n1` [Compound 167, 2-(2-methoxyethoxy)-7-(2-(2,3,5-trifluorophenyl)-5,6,7,8-tetrahydroimidazo[1,2-a]pyrimidin-3-yl)quinoxaline], the IC50 with GDF8 (setting [1]) and in the assay on TGF-β (setting [2]) was over 1000 nM in each case.
Regarding `Cc1cccc(-c2nc3n(c2-c2ccc4[nH]ncc4c2)CCC3)c1` [Compound 168, 5-(2-(m-tolyl)-6,7-dihydro-5H-pyrrolo[1,2-a]imidazol-3-yl)-1H-indazole], the IC50 was under 50 nM with GDF8 (setting [1]) and 50 to 100 nM in the assay with TGF-β (setting [2]).
Taken in the same sequence, the figures for `Cc1cccc(-c2nc3n(c2-c2ccc4cn[nH]c4c2)CCC3)c1` [Compound 169, 6-(2-(m-tolyl)-6,7-dihydro-5H-pyrrolo[1,2-a]imidazol-3-yl)-1H-indazole] were under 50 nM and 50 to 100 nM.
Taken in the same sequence, the figures for `Cc1cccc(-c2nc3n(c2-c2ccc4ncsc4c2)CCC3)c1` [Compound 170, 6-(2-(m-tolyl)-6,7-dihydro-5H-pyrrolo[1,2-a]imidazol-3-yl)benzo[d]thiazole] were under 50 nM and 50 to 100 nM.
In the same order, the values of `Cc1cccc(-c2nc3n(c2-c2ccc4[nH]cnc4c2)CCC3)c1` [Compound 171, 5-(2-(m-tolyl)-6,7-dihydro-5H-pyrrolo[1,2-a]imidazol-3-yl)-1H-benzo[d]imidazole] are 50 to 100 nM and 100 to 1000 nM.
For `Cc1cc(-c2nc3n(c2-c2ccc4[nH]ncc4c2)CCC3)ccc1F` [Compound 172, 5-(2-(4-fluoro-3-methylphenyl)-6,7-dihydro-5H-pyrrolo[1,2-a]imidazol-3-yl)-1H-indazole], the IC50 was under 50 nM in the assay with GDF8 (setting [3]) and 50 to 100 nM with TGF-β (setting [4]).
Consider `Cc1cc(-c2nc3n(c2-c2ccc4ncsc4c2)CCC3)ccc1F` [Compound 173, 6-(2-(4-fluoro-3-methylphenyl)-6,7-dihydro-5H-pyrrolo[1,2-a]imidazol-3-yl)benzo[d]thiazole], for which the IC50 with GDF8 (setting [1]) was under 50 nM; with TGF-β (setting [2]), 50 to 100 nM.
In the case of `Fc1ccc(-c2nc3n(c2-c2ccc4ncsc4c2)CCC3)cc1` [Compound 174, 6-(2-(4-fluorophenyl)-6,7-dihydro-5H-pyrrolo[1,2-a]imidazol-3-yl)benzo[d]thiazole], the IC50 fell in the range of 50 to 100 nM with GDF8 (setting [3]) and 100 to 1000 nM in the assay with TGF-β (setting [4]).
Taken in the same sequence, the figures for `Fc1ccc(-c2nc3n(c2-c2ccc4[nH]ncc4c2)CCC3)cc1` [Compound 175, 5-(2-(4-fluorophenyl)-6,7-dihydro-5H-pyrrolo[1,2-a]imidazol-3-yl)-1H-indazole] were 100 to 1000 nM and 100 to 1000 nM.
Taken in the same sequence, the figures for `Fc1ccc(-c2nc3n(c2-c2ccc4cn[nH]c4c2)CCC3)cc1` [Compound 176, 6-(2-(4-fluorophenyl)-6,7-dihydro-5H-pyrrolo[1,2-a]imidazol-3-yl)-1H-indazole] were 100 to 1000 nM and over 1000 nM.
Turning to `Cc1cc(-c2nc3n(c2-c2ccc4cn[nH]c4c2)CCC3)ccc1F` [Compound 177, 6-(2-(4-fluoro-3-methylphenyl)-6,7-dihydro-5H-pyrrolo[1,2-a]imidazol-3-yl)-1H-indazole], the IC50 lay within 50 to 100 nM in the assay with GDF8 (setting [1]) and 100 to 1000 nM in the assay with TGF-β (setting [2]).
Regarding `Fc1ccc(-c2nc3n(c2-c2ccc4nccnc4c2)CCC3)cc1` [Compound 178, 6-(2-(4-fluorophenyl)-6,7-dihydro-5H-pyrrolo[1,2-a]imidazol-3-yl)quinoxaline], the IC50 with GDF8 (setting [3]) was 100 to 1000 nM; with TGF-β (setting [4]), over 1000 nM.
For the compound `Cc1cc(-c2nc3n(c2-c2ccc4nccnc4c2)CCC3)ccc1F` [Compound 179, 6-(2-(4-fluoro-3-methylphenyl)-6,7-dihydro-5H-pyrrolo[1,2-a]imidazol-3-yl)quinoxaline], the IC50 lay within 50 to 100 nM in the assay on GDF8 (setting [1]) and 100 to 1000 nM in the assay with TGF-β (setting [2]).
